Measurements as given in PubChem BioAssay AID330 (DTP/NCI, 2004).
Where “and” joins values, the source holds several entries; their conditions need not be identical. Identical values can stand only once. Toxic doses and inconclusive results are not listed.

Tested on: P388 leukemia ip, CD2F1 mice, survival T/C
Assay: NCI In Vivo Anticancer Drug Screen. Data for tumor model P388 Leukemia (intraperitoneal) in CD2F1 (CDF1) mice
Details: endpoint: median survival time, higher = longer survival
In short: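 Mice carrying the transplanted tumor received test compound or vehicle. Survival was recorded in each group, and the value is the treated-group measurement divided by that of the vehicle-treated control group.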

[1] = dose: 60.0 mg/kg/injection, schedule: Q01DX005 (ip), vehicle: Klucel (hydroxypropylcellulose) (HPC)
[2] = dose: 120.0 mg/kg/injection, schedule: Q01DX005 (ip), vehicle: Klucel (hydroxypropylcellulose) (HPC)
[3] = dose: 240.0 mg/kg/injection, schedule: Q01DX005 (ip), vehicle: Klucel (hydroxypropylcellulose) (HPC)
[4] = dose: 60.0 mg/kg/injection, schedule: Q01DX005 (ip), vehicle: saline with Tween-80
[5] = dose: 120.0 mg/kg/injection, schedule: Q01DX005 (ip), vehicle: saline with Tween-80
[6] = dose: 50.0 mg/kg/injection, schedule: Q01DX005 (ip), vehicle: Klucel (hydroxypropylcellulose) (HPC)
[7] = dose: 100.0 mg/kg/injection, schedule: Q01DX005 (ip), vehicle: Klucel (hydroxypropylcellulose) (HPC)
[8] = dose: 100.0 mg/kg/injection, schedule: Q01DX001 (ip), vehicle: saline
[9] = dose: 200.0 mg/kg/injection, schedule: Q01DX001 (ip), vehicle: saline
[10] = dose: 50.0 mg/kg/injection, schedule: Q01DX009 (ip), vehicle: saline
[11] = dose: 100.0 mg/kg/injection, schedule: Q01DX009 (ip), vehicle: saline
[12] = dose: 240.0 mg/kg/injection, schedule: Q01DX005 (ip), vehicle: saline with Tween-80
[13] = dose: 50.0 mg/kg/injection, schedule: Q01DX005 (ip), vehicle: saline with Tween-80
[14] = dose: 100.0 mg/kg/injection, schedule: Q01DX005 (ip), vehicle: saline with Tween-80
[15] = dose: 200.0 mg/kg/injection, schedule: Q01DX005 (ip), vehicle: saline with Tween-80
[16] = dose: 3.12 mg/kg/injection, schedule: Q01DX009 (ip), vehicle: saline
[17] = dose: 50.0 mg/kg/injection, schedule: Q01DX009 (ip), vehicle: saline with Tween-80

`O=C1NC(=O)C(C23CCN(CC2)CC3)N1` (centres undefined) was tested, and the T/C (dose: 100.0 mg/kg/injection, schedule: Q04DX003 (ip), vehicle: saline) was 101 % of control, the T/C (dose: 200.0 mg/kg/injection, schedule: Q04DX003 (ip), vehicle: saline) was 100 % of control and the T/C (dose: 400.0 mg/kg/injection, schedule: Q04DX003 (ip), vehicle: saline) was 107 % of control.

`NC1CCNC(O)[N-]1.NC1CCNC(O)[N-]1.[Br][Pd][Br]` (centres undefined) was tested, and the T/C [1] was 99 % of control, the T/C [2] was 100 % of control and the T/C [3] was 102 % of control.

`CCCCCC(C=O)C(O)(C(F)(F)F)C(F)(F)Cl` (centres undefined) was tested, and the T/C (dose: 50.0 mg/kg/injection, schedule: Q04DX003 (ip), vehicle: saline with Tween-80) was 100 % of control, the T/C (dose: 100.0 mg/kg/injection, schedule: Q04DX003 (ip), vehicle: saline with Tween-80) was 100 % of control and the T/C (dose: 200.0 mg/kg/injection, schedule: Q04DX003 (ip), vehicle: saline with Tween-80) was 109 % of control.

For `Cc1nccn1Cc1ccc(Cl)cc1Cl`, the T/C [4] was 95 % of control and the T/C [5] was 95 % of control.

With `Cc1c(N=Nc2ccc(Br)cc2)c(-c2ccccc2)nn1C(N)=S` the T/C [6] was 102 % of control and the T/C [7] was 105 % of control.

In the case of `CC[C@@H]1C[C@H]2CN(CCc3c([nH]c4ccccc34)[C@@](C(=O)OC)(c3cc4c(cc3OC)N(C)[C@H]3[C@@](O)(C(=O)OC)[C@H](OC(C)=O)[C@]5(CC)CCCN6CC[C@]43[C@@H]65)C2)C1`, the T/C (dose: 0.06 mg/kg/injection, schedule: Q01DX009 (ip), vehicle: water) is reported as 104 % of control, the T/C (dose: 0.13 mg/kg/injection, schedule: Q01DX009 (ip), vehicle: water) is reported as 104 % of control and the T/C (dose: 0.25 mg/kg/injection, schedule: Q01DX009 (ip), vehicle: water) is reported as 105 % of control and 110 % of control. For the same compound, the T/C (dose: 0.5 mg/kg/injection, schedule: Q01DX009 (ip), vehicle: water) was 108 % of control and 118 % of control, the T/C (dose: 2.0 mg/kg/injection, schedule: Q01DX009 (ip), vehicle: saline with Tween-80) was 150 % of control and the T/C (dose: 4.0 mg/kg/injection, schedule: Q01DX009 (ip), vehicle: saline with Tween-80) was 159 % of control.

`Nc1nsc(Cl)n1` was tested, and the T/C (dose: 25.0 mg/kg/injection, schedule: Q01DX001 (ip), vehicle: saline with Tween-80) was 97 % of control, the T/C (dose: 50.0 mg/kg/injection, schedule: Q01DX001 (ip), vehicle: saline with Tween-80) was 106 % of control and the T/C (dose: 100.0 mg/kg/injection, schedule: Q01DX001 (ip), vehicle: saline with Tween-80) was 99 % of control.

In the case of `Cc1cc2c(-c3ccccc3)c3cc(C)c(N)cc3nc2cc1N`, the T/C (dose: 6.25 mg/kg/injection, schedule: Q01DX005 (ip), vehicle: Klucel (hydroxypropylcellulose) (HPC)) is reported as 101 % of control, the T/C (dose: 12.5 mg/kg/injection, schedule: Q01DX005 (ip), vehicle: Klucel (hydroxypropylcellulose) (HPC)) is reported as 100 % of control and the T/C (dose: 25.0 mg/kg/injection, schedule: Q01DX005 (ip), vehicle: Klucel (hydroxypropylcellulose) (HPC)) is reported as 99 % of control.

With `CC1=C(O)COc2cc(C)ccc21` the T/C [8] was 102 % of control, the T/C [9] was 100 % of control and the T/C (dose: 400.0 mg/kg/injection, schedule: Q01DX001 (ip), vehicle: saline) was 100 % of control.

With `C[CH2][Sn]([Br])([c]1ccccc1)[c]1ccccc1CN(C)C` (centres undefined) the T/C [10] was 91 % of control and the T/C [11] was 98 % of control.

For `COC(=O)c1nnn(-c2cccc(C(F)(F)F)c2)c1N`, the T/C [4] was 89 % of control, the T/C [5] was 90 % of control and the T/C [12] was 100 % of control.

`CCNC(=O)OCc1c(Cl)nc2n1CCS2` was tested, and the T/C (dose: 25.0 mg/kg/injection, schedule: Q01DX001 (ip), vehicle: Klucel (hydroxypropylcellulose) (HPC)) was 103 % of control, the T/C (dose: 50.0 mg/kg/injection, schedule: Q01DX001 (ip), vehicle: Klucel (hydroxypropylcellulose) (HPC)) was 110 % of control and the T/C (dose: 100.0 mg/kg/injection, schedule: Q01DX001 (ip), vehicle: Klucel (hydroxypropylcellulose) (HPC)) was 105 % of control.

With `CC1(C)CN2CCO[Si](CC[Si](C)(C)C)(OCC2)O1` the T/C [6] was 105 % of control, the T/C [7] was 105 % of control and the T/C (dose: 200.0 mg/kg/injection, schedule: Q01DX005 (ip), vehicle: Klucel (hydroxypropylcellulose) (HPC)) was 102 % of control.

In the case of `CC1CC2OC(=O)C(CN3CC3)C2CC2(C)C(O)CC(O)C12` (centres undefined), the T/C (dose: 25.0 mg/kg/injection, schedule: Q04DX002 (ip), vehicle: saline with Tween-80) is reported as 108 % of control and 93 % of control, the T/C (dose: 50.0 mg/kg/injection, schedule: Q04DX002 (ip), vehicle: saline with Tween-80) is reported as 101 % of control and 113 % of control and the T/C (dose: 100.0 mg/kg/injection, schedule: Q04DX002 (ip), vehicle: saline with Tween-80) is reported as 102 % of control and 113 % of control.

`O=C1CCC(c2n[nH]c(=S)n2-c2ccccc2)N1Cc1ccccc1` (centres undefined) was tested, and the T/C [4] was 101 % of control, the T/C [5] was 94 % of control and the T/C [12] was 90 % of control.

`C[P+]1(C)CCCCC1` was tested, and the T/C [8] was 98 % of control and the T/C [9] was 91 % of control.

With `NNC(=O)SCCC(=O)O` the T/C [13] was 97 % of control, the T/C [14] was 97 % of control and the T/C [15] was 101 % of control.

In the case of `O=[N+]([O-])c1ccc(/C=C/[P+](c2ccccc2)(c2ccccc2)c2ccccc2)o1`, the T/C (dose: 0.78 mg/kg/injection, schedule: Q01DX009 (ip), vehicle: saline) is reported as 103 % of control, the T/C (dose: 1.56 mg/kg/injection, schedule: Q01DX009 (ip), vehicle: saline) is reported as 98 % of control and the T/C [16] is reported as 101 % of control.

`c1ccc2c(c1)nc1n2CC2(CO1)COc1nc3ccccc3n1C2` was tested, and the T/C [17] was 99 % of control, the T/C (dose: 100.0 mg/kg/injection, schedule: Q01DX009 (ip), vehicle: saline with Tween-80) was 99 % of control and the T/C (dose: 200.0 mg/kg/injection, schedule: Q01DX009 (ip), vehicle: saline with Tween-80) was 104 % of control.

`COC(=O)C(C(C)=O)C(=O)c1cc([N+](=O)[O-])cc([N+](=O)[O-])c1` (centres undefined) was tested, and the T/C (dose: 100.0 mg/kg/injection, schedule: Q04DX002 (ip), vehicle: Klucel (hydroxypropylcellulose) (HPC)) was 98 % of control, the T/C (dose: 200.0 mg/kg/injection, schedule: Q04DX002 (ip), vehicle: Klucel (hydroxypropylcellulose) (HPC)) was 100 % of control and the T/C (dose: 400.0 mg/kg/injection, schedule: Q04DX002 (ip), vehicle: Klucel (hydroxypropylcellulose) (HPC)) was 97 % of control.

With `C=COS(=O)O` the T/C [16] was 104 % of control, the T/C (dose: 6.25 mg/kg/injection, schedule: Q01DX009 (ip), vehicle: saline) was 104 % of control and the T/C (dose: 12.5 mg/kg/injection, schedule: Q01DX009 (ip), vehicle: saline) was 105 % of control.

In the case of `O=C(O)CN1C(=O)c2cccc3cccc(c23)C1=O`, the T/C (dose: 50.0 mg/kg/injection, schedule: Q01DX009 (ip), vehicle: suspension in saline) is reported as 101 % of control, the T/C (dose: 100.0 mg/kg/injection, schedule: Q01DX009 (ip), vehicle: suspension in saline) is reported as 102 % of control and the T/C (dose: 200.0 mg/kg/injection, schedule: Q01DX009 (ip), vehicle: suspension in saline) is reported as 100 % of control.

`c1ccc(CN2COC3CCCCCCC32)cc1` (centres undefined) was tested, and the T/C (dose: 50.0 mg/kg/injection, schedule: Q01DX005 (ip), vehicle: saline) was 104 % of control, the T/C (dose: 100.0 mg/kg/injection, schedule: Q01DX005 (ip), vehicle: saline) was 112 % of control and the T/C (dose: 200.0 mg/kg/injection, schedule: Q01DX005 (ip), vehicle: saline) was 114 % of control.

For `CC(C)(C)c1cc(/C=N/n2c(-c3ccccc3)nc3ccccc3c2=O)cc(C(C)(C)C)c1O`, the T/C [1] was 98 % of control, the T/C [2] was 97 % of control and the T/C [3] was 90 % of control.

In the case of `COc1ccc(C2CC(=O)C(C)C(c3ccc(OC)cc3)N2)cc1` (centres undefined), the T/C [10] is reported as 100 % of control, the T/C [11] is reported as 104 % of control and the T/C (dose: 200.0 mg/kg/injection, schedule: Q01DX009 (ip), vehicle: saline) is reported as 100 % of control.

In the case of `O=C1CN(CCO)CC(=O)N2Cc3ccccc3CN12`, the T/C [13] is reported as 101 % of control, the T/C [14] is reported as 111 % of control and the T/C [15] is reported as 103 % of control.

For `CC1(C(=O)O)C2[Se]c3cc[se]c3C2C1(C)C(=O)O` (centres undefined), the T/C [13] was 100 % of control, the T/C [14] was 100 % of control and the T/C [15] was 104 % of control.

For `Cc1nc2cc(C(F)(F)F)cc(N)c2n1-c1ccccc1`, the T/C [13] was 113 % of control, the T/C [14] was 106 % of control and the T/C [15] was 111 % of control.

With `S=C=NCCc1ccccc1` the T/C (dose: 12.5 mg/kg/injection, schedule: Q01DX009 (ip), vehicle: saline with Tween-80) was 116 % of control, the T/C (dose: 22.0 mg/kg/injection, schedule: Q01DX009 (ip), vehicle: saline with Tween-80) was 115 % of control and the T/C [17] was 114 % of control.

`CCOC(=O)C(NC(=O)OC(C)(C)C)C(C)C` (centres undefined) was tested, and the T/C [13] was 98 % of control, the T/C [14] was 100 % of control and the T/C [15] was 100 % of control.
